Patent US20200069691A1, “HETEROCYCLIC COMPOUNDS AS HIV PROTEASE INHIBITORS” (Merck Sharp & Dohme Corp., priority 2016, published 2020)

Molecular target: T1, wild-type HIV-1 protease (Human immunodeficiency virus type 1 group M subtype B, UniProt P04585)
T1 construct: Escherichia coli expressed wild-type HIV-1 protease protein
Assay: Assay for Inhibition of Microbial Expressed HIV Protease (peptide substrate cleavage, LC-MS/MS readout)
Assay type: biochemical
Conditions: E. coli expressed wild-type HIV-1 protease, mean of at least two independent experiments, read-out: HIV Pr Enzyme HIV1 PR IC50
Method in brief: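 Cleavage of Val-Ser-Gln-Asn-(β-naphthyl)Ala-Pro-Ile-Val (400 μM) by recombinant HIV-1 protease ([…]) ran 1 h at 30 °C after a 30 min room-temperature inhibitor preincubation in 50 mM sodium acetate pH 5.5. Product peak areas by LC-MS/MS gave inhibition; values average at least two independent runs.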

| SMILES | IC50 [nM] |
| --- | --- |
| C[C@H](c1cccc(C(=O)N2Cc3ccccc3C2)c1)N1C(=N)NC(c2ccccc2)(c2ccccc2)C1=O [Compound 187, 3-{(1R)-1-[3-(1,3-dihydro-2H-isoindol-2-ylcarbonyl)phenyl]ethyl}-2-imino-5,5-diphenylimidazolidin-4-one] | 3.67 |
| COC(=O)Nc1ncc2c(n1)CN(C(=O)c1cccc(CN3C(=N)NC(CC(C)C)(c4ccccc4)C3=O)c1)C2 (centres unmarked) [Compound 188, methyl {6-[(3-{[2-imino-4-(2-methylpropyl)-5-oxo-4-phenylimidazolidin-1-yl]methyl}phenyl)carbonyl]-6,7-dihydro-5H-pyrrolo[3,4-d]pyrimidin-2-yl}carbamate] | 3.78 |
| COC(=O)Nc1ncc2c(n1)CN(C(=O)c1cccc(CN3C(=N)NC(c4ccc(F)cc4)(c4ccc(F)cc4)C3=O)c1)C2 [Compound 189, methyl {6-[(3-{[4,4-bis(4-fluorophenyl)-2-imino-5-oxoimidazolidin-1-yl]methyl}phenyl)carbonyl]-6,7-dihydro-5H-pyrrolo[3,4-d]pyrimidin-2-yl}carbamate] | 3.83 |
| COC(=O)Nc1ncc2c(n1)CN(C(=O)c1cccc(CN3C(=N)NC(c4ccccc4)(c4ccccc4)C3=O)c1)C2 [Compound 190, methyl [6-({3-[(2-imino-5-oxo-4,4-diphenylimidazolidin-1-yl)methyl]phenyl}carbonyl)-6,7-dihydro-5H-pyrrolo[3,4-d]pyrimidin-2-yl]carbamate] | 3.86 |
| CC(C)CCC1(c2ccccc2)NC(=N)N(Cc2cccc(C(=O)N3Cc4cnc(C#N)nc4C3)c2)C1=O (centres unmarked) [Compound 191, 6-[(3-{[2-imino-4-(3-methylbutyl)-5-oxo-4-phenylimidazolidin-1-yl]methyl}phenyl)carbonyl]-6,7-dihydro-5H-pyrrolo[3,4-d]pyrimidine-2-carbonitrile] | 4.17 |
| N=C1NC(c2ccccc2)(c2ccc(-c3ccccc3)cc2)C(=O)N1Cc1cccc(C(=O)N2Cc3nccnc3C2)c1 (centres unmarked) [Compound 192, 5-biphenyl-4-yl-3-[3-(5,7-dihydro-6H-pyrrolo[3,4-b]pyrazin-6-ylcarbonyl)benzyl]-2-imino-5-phenylimidazolidin-4-one] | 44.2 |
| CC(C)CCC1(c2ccccc2)NC(=N)N(Cc2cccc(C(=O)N3Cc4nccnc4C3)c2)C1=O (centres unmarked) [Compound 193, 3-[3-(5,7-dihydro-6H-pyrrolo[3,4-b]pyrazin-6-ylcarbonyl)benzyl]-2-imino-5-(3-methylbutyl)-5-phenylimidazolidin-4-one] | 4.89 |
| N=C1NC(c2ccccc2)(c2ccccc2)C(=O)N1Cc1cccc(C(=O)N2Cc3cccc(F)c3C2)c1 [Compound 194, 3-{3-[(4-fluoro-1,3-dihydro-2H-isoindol-2-yl)carbonyl]benzyl}-2-imino-5,5-diphenylimidazolidin-4-one] | 35.7 |
| N=C1NC(c2ccc(F)cc2)(c2ccc(F)cc2)C(=O)N1Cc1cccc(C(=O)N2Cc3ccccc3C2)c1 [Compound 195, 3-[3-(1,3-dihydro-2H-isoindol-2-ylcarbonyl)benzyl]-5,5-bis(4-fluorophenyl)-2-iminoimidazolidin-4-one] | 56.9 |
| N=C1NC(c2ccc(F)cc2)(c2ccc(F)cc2)C(=O)N1Cc1cccc(C(=O)N2Cc3cccc(F)c3C2)c1 [Compound 196, 3-{3-[(4-fluoro-1,3-dihydro-2H-isoindol-2-yl)carbonyl]benzyl}-5,5-bis (4-fluorophenyl)-2-iminoimidazolidin-4-one] | 31.6 |
| N=C1NC(c2ccc(F)cc2)(c2ccc(F)cc2)C(=O)N1Cc1cccc(C(=O)N2Cc3cc(F)c(F)cc3C2)c1 [Compound 197, 3-{3-[(5,6-difluoro-l,3-dihydro-2H-isoindol-2-yl)carbonyl]benzyl}-5,5-bis(4-fluorophenyl)-2-iminoimidazolidin-4-one] | 5.25 |
| C[C@H](c1cccc(C(=O)N2Cc3cncnc3C2)c1)N1C(=N)NC(c2ccc(F)cc2)(c2ccc(F)cc2)C1=O [Compound 198, 3-{(1R)-1-[3-(5,7-dihydro-6H-pyrrolo[3,4-d]pyrimidin-6-ylcarbonyl)phenyl]ethyl}-5,5-bis(4-fluorophenyl)-2-iminoimidazolidin-4-one] | 5.36 |
| N#Cc1ncc2c(n1)CN(C(=O)c1cccc(CN3C(=N)NC(c4ccccc4)(c4ccccc4)C3=O)c1)C2 [Compound 199, 6-({3-[(2-imino-5-oxo-4,4-diphenylimidazolidin-1-yl)methyl]phenyl}carbonyl)-6,7-dihydro-5H-pyrrolo[3,4-d]pyrimidine-2-carbonitrile] | 5.59 |
| N=C1NC(c2ccc(F)cc2)(c2ccc(F)cc2)C(=O)N1Cc1cccc(C(=O)N2Cc3nccnc3C2)c1 [Compound 200, 3-[3-(5,7-dihydro-6H-pyrrolo[3,4-b]pyrazin-6-ylcarbonyl)benzyl]-5,5-bis(4-fluorophenyl)-2-iminoimidazolidin-4-one] | 14.2 |
| N=C1NC(c2ccccc2)(c2ccc(-c3ccc(F)cc3)cc2)C(=O)N1Cc1cccc(C(=O)N2Cc3nccnc3C2)c1 (centres unmarked) [Compound 201, 3-[3-(5,7-dihydro-6H-pyrrolo[3,4-b]pyrazin-6-ylcarbonyl)benzyl]-5-(4′-fluorobiphenyl-4-yl)-2-imino-5-phenylimidazolidin-4-one] | 6.32 |
| C[C@H](c1cccc(C(=O)N2Cc3cnn(C)c3C2)c1)N1C(=N)NC(c2ccc(F)cc2)(c2ccc(F)cc2)C1=O [Compound 202, 5,5-bis(4-fluorophenyl)-2-imino-3-[(1R)-1-{3-[(1-methyl-4,6-dihydropyrrolo [3,4-c]pyrazol-5(1H)-yl)carbonyl]phenyl}-ethyl]imidazolidin-4-one] | 6.54 |
| N=C1NC(c2ccccc2)(c2ccccc2)C(=O)N1Cc1cccc(C(=O)N2Cc3ccc(F)cc3C2)c1 [Compound 203, 3-{3-[(5-fluoro-1,3-dihydro-2H-isoindol-2-yl)carbonyl]benzyl}-2-imino-5,5-diphenylimidazolidin-4-one] | 6.71 |
| CC(C)CCC1(c2ccccc2)NC(=N)N(Cc2cccc(C(=O)N3Cc4ccccc4C3)c2)C1=O (centres unmarked) [Compound 204, 3-[3-(1,3-dihydro-2H-isoindol-2-ylcarbonyl)benzyl]-2-imino-5-(3-methylbutyl)-5-phenylimidazolidin-4-one] | 7.38 |
| COc1ncc2c(n1)CN(C(=O)c1cccc(CN3C(=N)NC(c4ccc(F)cc4)(c4ccc(F)cc4)C3=O)c1)C2 [Compound 205, 5,5-bis(4-fluorophenyl)-2-imino-3-{3-[(2-methoxy-5,7-dihydro-6H-pyrrolo[3,4-d]pyrimidin-6-yl)carbonyl]benzyl} imidazolidin-4-one] | 7.67 |
| Cc1nc2c(s1)CN(C(=O)c1cccc(CN3C(=N)NC(c4ccccc4)(c4ccccc4)C3=O)c1)C2 [Compound 206, 5-({3-[(2-imino-5-oxo-4,4-diphenylimidazolidin-1-yl)methyl]phenyl}carbonyl)-2-methyl-3,4,5,6-tetrahydropyrrolo[3,4-d][1,3]thiazol-1-ium] | 8.2 |
| CC(C)CC[C@]1(c2ccccc2)NC(=N)N(Cc2cc(F)cc(C(=O)N3Cc4nccnc4C3)c2)C1=O [Compound 207, (5R)-3-[3-(5,7-dihydro-6H-pyrrolo[3,4-b]pyrazin-6-ylcarbonyl)-5-fluorobenzyl]-2-imino-5-(3-methylbutyl)-5-phenylimidazolidin-4-one] | 8.35 |
| CC(C)CCC1(c2ccccc2)NC(=N)N(Cc2cccc(C(=O)N3Cc4nccnc4C3)c2)C1=O (centres unmarked) [Compound 208, 3-[3-(5,7-dihydro-6H-pyrrolo[3,4-b]pyrazin-6-ylcarbonyl)benzyl]-2-imino-5-(3-methylbutyl)-5-phenylimidazolidin-4-one] | 35.2 |
| CCOC(=O)c1nc2n(c1Cl)CCN(C(=O)c1cccc(CN3C(=N)NC(c4ccccc4)(c4ccccc4)C3=O)c1)C2 [Compound 209, ethyl 3-chloro-7-({3-[(2-imino-5-oxo-4,4-diphenylimidazolidin-1-yl)methyl]phenyl}carbonyl)-5,6,7,8-tetrahydroimidazo[1,2-a]pyrazine-2-carboxylate] | 8.83 |
| CC(C)CC1(c2cccc(F)c2)NC(=N)N(Cc2cccc(C(=O)N3Cc4nccnc4C3)c2)C1=O (centres unmarked) [Compound 210, 3-[3-(5,7-dihydro-6H-pyrrolo[3,4-b]pyrazin-6-ylcarbonyl)benzyl]-5-(3-fluorophenyl)-2-imino-5-(2-methylpropyl)imidazolidin-4-one] | 9.12 |
| N=C1NC(c2ccc(F)cc2)(c2ccc(F)cc2)C(=O)N1Cc1cccc(C(=O)N2Cc3cnc(C(F)(F)F)nc3C2)c1 [Compound 211, 5,5-bis(4-fluorophenyl)-2-imino-3-(3-{[2-(trifluoromethyl)-5,7-dihydro-6H-pyrrolo[3,4-d]pyrimidin-6-yl]carbonyl}benzyl) imidazolidin-4-one] | 29.1 |
| N=C1NC(c2ccc(F)cc2)(c2cccc(Br)c2)C(=O)N1Cc1cccc(C(=O)N2Cc3[nH]nc(C(F)(F)F)c3C2)c1 (centres unmarked) [Compound 212, 5-(3-bromophenyl)-5-(4-fluorophenyl)-2-imino-3-(3-{[3-(trifluoromethyl)-4,6-dihydropyrrolo [3,4-c]pyrazol-5(1H)-yl]carbonyl}benzyl) imidazolidin-4-one] | 9.49 |
| N=C1NC(c2ccccc2)(c2ccc(Br)cc2)C(=O)N1Cc1cccc(C(=O)N2Cc3ccccc3C2)c1 (centres unmarked) [Compound 213, 5-(4-bromophenyl)-3-[3-(1,3-dihydro-2H-isoindol-2-ylcarbonyl)benzyl]-2-imino-5-phenylimidazolidin-4-one] | 9.77 |
| Cc1cc2c(cn1)CN(C(=O)c1cccc(CN3C(=N)NC(c4ccccc4)(c4ccccc4)C3=O)c1)C2 [Compound 214, 2-imino-3-{3-[(6-methyl-1,3-dihydro-2H-pyrrolo[3,4-c]pyridin-2-yl)carbonyl]benzyl}-5,5-diphenylimidazolidin-4-one] | 9.81 |
| N=C1NC(c2ccc(F)cc2)(c2ccc(F)cc2)C(=O)N1Cc1cccc(C(=O)N2Cc3cncnc3C2)c1 [Compound 215, 3-[3-(5,7-dihydro-6H-pyrrolo[3,4-d]pyrimidin-6-ylcarbonyl)benzyl]-5,5-bis(4-fluorophenyl)-2-iminoimidazolidin-4-one] | 23 |
